This assay concerns Human umbilical-vein endothelial cells (HUVEC). Kind of assay: Anti-angiogenic activity in Tube Formation Assay (collagen tube, 1st Assay and 2nd Assay). It is filed as cell-based. Particulars: for inhibition at 10 µg/mL / inhibition at 30 µg/mL / inhibition at 1 µM / inhibition at 10 µM / inhibition at 1 µg/mL: Homo sapiens, HUVEC; for inhibition at 10 µg/mL: 10 μg/ml; for inhibition at 30 µg/mL: 30 μg/ml; for inhibition at 1 µM / inhibition at 10 µM: positive control. On the procedure:
Anti-angiogenic activity: collagen tube
Human umbilical-vein endothelial cells (HUVEC; Kurabo Industries, Ltd., Osaka, Japan) were cultured with M-199 medium (Gibco, Gaithersburg, Md.) with […], bFGF (15 ng/mL; PeproTech EC, Ltd., Princeton, N.J.) and epidermal growth factor (EGF) (15 ng/mL; Upstate Biotechnology Inc., Lake Placid, N.Y.) until they become confluent. All experiments were performed using cells that were passaged at least five times. Eight volumes of type-I collagen solution (Nitta Gelatin Inc., Osaka, Japan)were mixed with one volume of 10X M-199 medium and one volume of reconstruction buffer (0.5 N NaOH, 200 mM HEPES and 260 mM NaHCO3).
Collagen gel (300 μL/well) was placed in 24-well culture plates (NUNC) and incubated for 1.5 hours. HUVEC (1.4×10^5 /0.5 mL) were seeded in the collagen-coated plates and cultured for 2 hours at 37° C. Fifty microliters of sample were added. The collagen gel was replaced (300 μL/well), and the mixture was cultured for 1.5 hours. Three hundred fifty microliters of M-199 medium with […], 30 ng/mL basic fibroblast growth factor (bFGF) were added, and the mixture was cultured for 20 hours. One field per well was photographed with a phase-contrast microscope, and the length of the tube structures were measured on a Macintosh computer using the public domain NIH Image program (see Table 1 for results). Erbstatin was used as a positive control for inhibition of angiogenesis.

[1] abbreviates: 1st Assay, 1 μg/ml, n.e.: no effect, over 100% = more inhibition than in control cultures without bFGF.
Setting [2] is: 1st Assay, over 100% = more inhibition than in control cultures without bFGF.
The mark [3] stands for this setting: 2nd Assay, over 100% = more inhibition than in control cultures without bFGF.

Usually inhibition stands for the change of the read-out against control, counted positive when it falls. In the case of `CC1=C(C)C2=CC(=O)c3c(c(O)c4occ(C)c4c3O)C2(C)CC1` (stereo not drawn) [Ajuforrestine A fraction, 1,11b-dihydro-7,11-dihydroxy-3,4,8,11b-tetramethyl-phenanthro[3,2-b]furan-6(2H)-one], the “% of inhibition (tube formation)” value under setting [1] is recorded as “n.e”. Under setting [2], the inhibition at 10 µg/mL is 99.6% and the inhibition at 30 µg/mL turned out to be 102%. Under setting [3], the inhibition at 10 µg/mL is 98% and the inhibition at 30 µg/mL was 109%.

In the case of `O=CN/C=C/c1cc(O)ccc1O` [Erbstatin, reference compound], where the note is “1st Assay”, the inhibition at 1 µM was determined as 7.6% and the inhibition at 10 µM was determined as 118%. Under “2nd Assay”, the inhibition at 1 µM amounted to 6.7% and the inhibition at 10 µM is 108%.

With `CC1=C(C)C2=CC(=O)c3c(c(O)c4oc(C)cc4c3O)C2(C)CC1` (stereo not drawn) [Formula I-A fraction], the inhibition at 1 µg/mL under setting [1] came out at 115% and the inhibition at 1 µg/mL (2nd Assay, 1 μg/ml, over 100% = more inhibition than in control cultures without bFGF) is 108%. The inhibition at 10 µg/mL reads like this: under setting [2], 119%; under setting [3], 108%. In addition, the inhibition at 30 µg/mL under setting [2] turned out to be 119% and the inhibition at 30 µg/mL under setting [3] was 107%.

Values taken from patent US5981574A, “Phenanthrofuran derivatives” (Phytera, Inc., priority 1998, dated 1999).
